One experiment concerns HIV. As to the kind of experiment: MT4 Assay (anti-HIV activity). Format: cell-based. Particulars: Human immunodeficiency virus 1, 96 h, read-out: HIV MT4 Assay IC50, HTLV-1 transformed cell line MT-4, cell titer glo, 10 point dose response curve. Summed up:
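MT-4 cells (HTLV-1 transformed) were used for antiviral activity and cytotoxicity, run in parallel, with luminescence read by CellTiter-Glo 96 hours later. Percent inhibition was expressed against the no-compound control. IC50s came from 10-point curves of 3-4-fold serial dilutions spanning >1000-fold.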
(In general: In ATP-based viability assays light output follows the ATP content of the culture.)
For orientation: IC50 means the concentration needed to halve the response being measured. Take `Cc1c(-c2c([C@H](OC(C)(C)C)C(=O)N(C)O)n(C)c(=O)c3ccccc23)cc(F)c2c1CCCO2` (atropisomer, axis not shown; (M)) [Example 214, (S)(M)-2-(tert-butoxy)-2-(4-(8-fluoro-5-methylchroman-6-yl)-2-methyl-1-oxo-1,2-dihydroisoquinolin-3-yl)-N-hydroxy-N-methylacetamide]: the IC50 turned out to be 4840 nM.

`Cn1c(C(OC(C)(C)C)C(=O)O)c(-c2ccc(Cl)c(Cl)c2)c2ccccc2c1=O` (centres unmarked) [Example 11, 2-(tert-butoxy)-2-[4-(3,4-dichlorophenyl)-2-methyl-1-oxo-1,2-dihydroisoquinolin-3-yl]acetic acid]: the IC50 amounted to 14800 nM.

Regarding `CCn1c(C(OC(C)(C)C)C(=O)O)c(-c2ccc3c(c2)CCCO3)c2ccccc2c1=O` (centres unmarked) [Example 65, 2-(tert-butoxy)-2-[4-(3,4-dihydro-2H-1-benzopyran-6-yl)-2-ethyl-1-oxo-1,2-dihydroisoquinolin-3-yl]acetic acid], the IC50 amounted to 1460 nM.

On to `Cn1c(C(OC(C)(C)C)C(=O)O)c(-c2cccc(F)c2)c2ccccc2c1=O` (centres unmarked) [Example 40, 2-(tert-butoxy)-2-[4-(3-fluorophenyl)-2-methyl-1-oxo-1,2-dihydroisoquinolin-3-yl]acetic acid], for which the IC50 was 2180 nM.

As for `COCCOc1ccc2c(-c3ccc4c(c3C)CCCO4)c(C(OC(C)(C)C)C(=O)O)n(C)c(=O)c2c1` (centres unmarked) [Example 81, 2-(tert-butoxy)-2-[7-(2-methoxyethoxy)-2-methyl-4-(5-methyl-3,4-dihydro-2H-1-benzopyran-6-yl)-1-oxo-1,2-dihydroisoquinolin-3-yl]acetic acid], the IC50 amounted to 440 nM.

Consider `Cn1c(C(OC(C)(C)C)C(=O)O)c(-c2ccc3c(c2)CCC3)c2ccccc2c1=O` (centres unmarked) [Example 152, 2-(tert-butoxy)-2-(4-(2,3-dihydro-1H-inden-5-yl)-2-methyl-1-oxo-1,2-dihydroisoquinolin-3-yl)acetic acid], for which the concentration for half-maximal inhibition (IC50) worked out at 430 nM.

In the case of `Cc1noc(C)c1-c1ccc2c(-c3cc(F)c4c(c3C)CCCO4)c([C@H](OC(C)(C)C)C(=O)O)n(C)c(=O)c2c1` (atropisomer, axis not shown; (M)) [Example 207, (2S)(M)-[(1,1-dimethylethyl)oxy][7-(3,5-dimethyl-4-isoxazolyl)-4-(8-fluoro-5-methyl-3,4-dihydro-2H-chromen-6-yl)-2-methyl-1-oxo-1,2-dihydro-3-isoquinolinyl]ethanoic acid], the IC50 turned out to be 80 nM.

Consider `Cc1ccc(-c2c(C(OC(C)(C)C)C(=O)O)n(C)c(=O)c3cc(-c4ccoc4C)ccc23)cc1C` (centres unmarked) [Example 193, [(1,1-dimethylethyl)oxy][4-(3,4-dimethylphenyl)-2-methyl-7-(2-methyl-3-furanyl)-1-oxo-1,2-dihydro-3-isoquinolinyl]acetic acid], for which the IC50 was 1340 nM.

In the case of `Cc1c(-c2c([C@H](OC(C)(C)C)C(=O)O)n(C)c(=O)c3cc(-c4ccc(N(C)C)cc4)ccc23)cc(F)c2c1CCCO2` (atropisomer, axis not shown; (M)) [Example 199, (2S)(M)-[7-[4-(dimethylamino)phenyl]-4-(8-fluoro-5-methyl-3,4-dihydro-2H-chromen-6-yl)-2-methyl-1-oxo-1,2-dihydro-3-isoquinolinyl][(1,1-dimethylethyl)oxy]ethanoic acid], the IC50 was determined as 90 nM.

Staying with this experiment, now noted: read-out: HIV MT4 Assay IC50; HTLV-1 transformed cell line MT-4; 96 hours; cell titer glo; 10 point dose response curve.
As for `Cc1c(-c2c([C@H](OC(C)(C)C)C(=O)O)n(C)c(=O)c3ccccc23)cc(F)c2c1CCCO2` [Example 162, (2S)-2-(tert-butoxy)-2-[4-(8-fluoro-5-methyl-3,4-dihydro-2H-1-benzopyran-6-yl)-2-methyl-1-oxo-1,2-dihydroisoquinolin-3-yl]acetic acid], the IC50 was determined as 4190 nM.

As to `Cc1c(-c2c([C@@H](OC(C)(C)C)C(=O)O)n(C)c(=O)c3ccccc23)cc(F)c2c1CCCO2` [Example 161, (2R)-2-(tert-butoxy)-2-[4-(8-fluoro-5-methyl-3,4-dihydro-2H-1-benzopyran-6-yl)-2-methyl-1-oxo-1,2-dihydroisoquinolin-3-yl]acetic acid], the IC50 was found to be 7210 nM.

The values above are taken from US9029391B2 (priority 2011, dated 2015).
